# What was measured:
# blackgrass = assay: Test B pre/postemergence blackgrass; format: in vivo, Alopecurus myosuroides
# Procedure, shortened: (§1)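 Herbicidal effect was estimated by eye on a ten-point control scale after plants spent twelve to sixteen days in a greenhouse following soil or foliar treatment. Foliar sprays targeted plants at one to four leaves; all doses were formulated in a non-phytotoxic solvent with surfactant.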
# cocklebur = assay: Test B pre/postemergence cocklebur; format: in vivo, Xanthium strumarium
# Procedure, shortened: as §1
# corn = assay: Test B pre/postemergence corn; format: in vivo, Zea mays
# Procedure, shortened: as §1
# morningglory = assay: Test B pre/postemergence morningglory; format: in vivo, Ipomoea hederacea
# Procedure, shortened: as §1
# sugar beet = assay: Test B pre/postemergence sugar beet; format: in vivo, Beta vulgaris
# Procedure, shortened: as §1
# velvetleaf = assay: Test B pre/postemergence velvetleaf; format: in vivo, Abutilon theophrasti
# Procedure, shortened: as §1
# crabgrass = assay: Test B pre/postemergence crabgrass; format: in vivo, Digitaria sanguinalis
# Procedure, shortened: as §1
# bedstraw = assay: Test B pre/postemergence bedstraw; format: in vivo, Galium aparine
# Procedure, shortened: as §1
# giant foxtail = assay: Test B pre/postemergence giant foxtail; format: in vivo, Setaria faberii
# Procedure, shortened: as §1
# wild oat = assay: Test B pre/postemergence wild oat; format: in vivo, Avena fatua
# Procedure, shortened: as §1
# wheat = assay: Test B pre/postemergence wheat; format: in vivo, Triticum aestivum
# Procedure, shortened: as §1
# soybean = assay: Test B pre/postemergence soybean; format: in vivo, Glycine max
# Procedure, shortened: as §1
# pigweed = assay: Test B pre/postemergence pigweed; format: in vivo, Amaranthus retroflexus
# Procedure, shortened: as §1
# surinam grass = assay: Test B pre/postemergence surinam grass; format: in vivo, Brachiaria decumbens
# Procedure, shortened: as §1
# rape = assay: Test B pre/postemergence rape; format: in vivo, Brassica napus
# Procedure, shortened: as §1
# purple nutsedge = assay: Test B pre/postemergence purple nutsedge; format: in vivo, Cyperus rotundus
# Procedure, shortened: as §1
# [1] = Postemergence, Rate 62 g/ha, scale 0 to 10, 0 is no effect, 10 is complete control
# [2] = Postemergence, Rate 125 g/ha, scale of 0 to 10 where 0 is no effect and 10 is complete control
# [3] = Preemergence, Rate 125 g/ha, scale of 0 to 10 where 0 is no effect and 10 is complete control
# [4] = Preemergence, Rate 250 g/ha, scale 0 (no effect) to 10 (complete control)
# [5] = Rate 62 g/ha, Preemergence, scale 0 to 10
# [6] = Rate 250 g/ha, Postemergence, scale 0 to 10, 0 is no effect, 10 is complete control
# [7] = Rate 500 g/ha, Postemergence, scale 0 to 10, 0 is no effect, 10 is complete control
# [8] = Rate 500 g/ha, Preemergence, scale 0 to 10 (0 no effect, 10 complete control)
smiles,measurement,setting,value
C#CC(CC)n1c(=O)on(C(=O)N(c2ccc(F)cc2)C(C)C)c1=O (stereo not shown) [Compound 753],"Plant response rating, Blackgrass",blackgrass; [1],0
same,Blackgrass plant response rating,blackgrass; [2],2
same,"Plant response rating, Blackgrass",blackgrass; [3],9
same,Blackgrass plant response rating,blackgrass; [4],9
same,Blackgrass plant response rating,blackgrass; [5],5
same,Blackgrass plant response rating,blackgrass; [6],4
same,Blackgrass plant response rating,blackgrass; [7],4
same,Blackgrass plant response rating,blackgrass; [8],9
same,"Plant response rating, Cocklebur",cocklebur; [1],0
same,Cocklebur plant response rating,cocklebur; [2],0
same,"Plant response rating, Cocklebur",cocklebur; [3],0
same,Cocklebur plant response rating,cocklebur; [4],0
same,Cocklebur plant response rating,cocklebur; [5],0
same,Cocklebur plant response rating,cocklebur; [6],0
same,Cocklebur plant response rating,cocklebur; [7],4
same,Cocklebur plant response rating,cocklebur; [8],2
same,"Plant response rating, Corn",corn; [1],0
same,Corn plant response rating,corn; [2],0
same,"Plant response rating, Corn",corn; [3],0
same,Corn plant response rating,corn; [4],0
same,Corn plant response rating,corn; [5],0
same,Corn plant response rating,corn; [6],0
same,Corn plant response rating,corn; [7],1
same,Corn plant response rating,corn; [8],0
same,Morningglory plant response rating,morningglory; [2],2
same,"Plant response rating, Morningglory",morningglory; [3],0
same,Morningglory plant response rating,morningglory; [4],0
same,Morningglory plant response rating,morningglory; [5],0
same,Morningglory plant response rating,morningglory; [6],9
same,Morningglory plant response rating,morningglory; [7],10
same,Morningglory plant response rating,morningglory; [8],0
same,"Plant response rating, Sugarbeets",sugar beet; [1],0
same,"Plant response rating, Sugarbeets",sugar beet; [3],0
same,Sugarbeets plant response rating,sugar beet; [4],1
same,Sugarbeets plant response rating,sugar beet; [5],0
same,Sugarbeets plant response rating,sugar beet; [6],5
same,Sugarbeets plant response rating,sugar beet; [7],5
same,Sugarbeets plant response rating,sugar beet; [8],8
same,"Plant response rating, Velvetleaf",velvetleaf; [1],0
same,"Plant response rating, Velvetleaf",velvetleaf; [3],0
same,Velvetleaf plant response rating,velvetleaf; [5],0
same,Velvetleaf plant response rating,velvetleaf; [6],2
same,Velvetleaf plant response rating,velvetleaf; [7],2
same,Velvetleaf plant response rating,velvetleaf; [8],2
same,"Plant response rating, Crabgrass",crabgrass; [1],0
same,Crabgrass plant response rating,crabgrass; [2],4
same,"Plant response rating, Crabgrass",crabgrass; [3],9
same,Crabgrass plant response rating,crabgrass; [4],9
same,Crabgrass plant response rating,crabgrass; [5],9
same,Crabgrass plant response rating,crabgrass; [6],6
same,Crabgrass plant response rating,crabgrass; [7],9
same,Crabgrass plant response rating,crabgrass; [8],9
same,"Plant response rating, Bedstraw",bedstraw; [3],0
same,Bedstraw plant response rating,bedstraw; [4],3
same,Bedstraw plant response rating,bedstraw; [5],0
same,Bedstraw plant response rating,bedstraw; [7],6
same,Bedstraw plant response rating,bedstraw; [8],3
same,"Plant response rating, Giant foxtail",giant foxtail; [1],3
same,Giant foxtail plant response rating,giant foxtail; [2],8
same,"Plant response rating, Giant foxtail",giant foxtail; [3],9
same,Giant foxtail plant response rating,giant foxtail; [4],9
same,Giant foxtail plant response rating,giant foxtail; [5],9
same,Giant foxtail plant response rating,giant foxtail; [6],8
same,Giant foxtail plant response rating,giant foxtail; [7],9
same,Giant foxtail plant response rating,giant foxtail; [8],9
same,"Plant response rating, Wild oats",wild oat; [1],0
same,"Plant response rating, Wild oats",wild oat; [3],4
same,Wild oats plant response rating,wild oat; [4],8
same,Wild oats plant response rating,wild oat; [5],0
same,Wild oats plant response rating,wild oat; [6],0
same,Wild oats plant response rating,wild oat; [7],2
same,Wild oats plant response rating,wild oat; [8],9
same,"Plant response rating, Wheat",wheat; [1],0
same,"Plant response rating, Wheat",wheat; [3],0
same,Wheat plant response rating,wheat; [4],3
same,Wheat plant response rating,wheat; [5],0
same,Wheat plant response rating,wheat; [6],0
same,Wheat plant response rating,wheat; [7],5
same,Wheat plant response rating,wheat; [8],3
same,"Plant response rating, Soybean",soybean; [1],1
same,"Plant response rating, Soybean",soybean; [3],0
same,Soybean plant response rating,soybean; [4],0
same,Soybean plant response rating,soybean; [5],0
same,Soybean plant response rating,soybean; [6],4
same,Soybean plant response rating,soybean; [7],4
same,Soybean plant response rating,soybean; [8],0
same,"Plant response rating, Redroot pigweed",pigweed; [1],4
same,Redroot pigweed plant response rating,pigweed; [2],5
same,"Plant response rating, Redroot pigweed",pigweed; [3],8
same,Redroot pigweed plant response rating,pigweed; [4],9
same,Redroot pigweed plant response rating,pigweed; [5],6
same,Redroot pigweed plant response rating,pigweed; [6],6
same,Redroot pigweed plant response rating,pigweed; [7],7
same,Redroot pigweed plant response rating,pigweed; [8],10
same,"Plant response rating, B. signalgrass",surinam grass; [1],0
same,B. signalgrass plant response rating,surinam grass; [2],0
same,B. signalgrass plant response rating,"surinam grass; Preemergence, Rate 62 g/ha, scale of 0 to 10 where 0 is no effect and 10 is complete control",2
same,"Plant response rating, B. signalgrass",surinam grass; [3],7
same,B. signalgrass plant response rating,surinam grass; [4],9
same,B. signalgrass plant response rating,surinam grass; [6],2
same,B. signalgrass plant response rating,surinam grass; [7],7
same,B. signalgrass plant response rating,surinam grass; [8],9
same,"Plant response rating, Rape",rape; [1],0
same,Rape plant response rating,rape; [2],0
same,"Plant response rating, Rape",rape; [3],5
same,Rape plant response rating,rape; [4],7
same,Rape plant response rating,rape; [5],2
same,Rape plant response rating,rape; [6],0
same,Rape plant response rating,rape; [7],0
same,Rape plant response rating,rape; [8],7
same,"Plant response rating, Nutsedge",purple nutsedge; [1],0
same,Nutsedge plant response rating,purple nutsedge; [2],0
same,"Plant response rating, Nutsedge",purple nutsedge; [3],0
same,Nutsedge plant response rating,purple nutsedge; [4],0
same,Nutsedge plant response rating,purple nutsedge; [5],0
same,Nutsedge plant response rating,purple nutsedge; [6],2
same,Nutsedge plant response rating,purple nutsedge; [7],3
same,Nutsedge plant response rating,purple nutsedge; [8],0
